According to patent US20160297851A1, “BROAD SPECTRUM […]” (priority 2012, published 2016):
Converted amounts (≈) assume the structure as drawn.

Columns and labels:
[1] = molecular target: truncated wild type E. coli SPase (Escherichia coli, UniProt P00803); experiment: Equilibrium binding, arylomycin fluorescence; conditions: micelles; average of three independent experiments
[2] = tested on: E. coli and P. aeruginosa serine mutants; experiment: MIC after permeabilizing with polymyxin B nonapeptide; type: cell-based
[3] = tested on: Corynebacterium glutamicum DSM 44475; experiment: microbe, parasite or virus in culture; type: cell-based; conditions: DSM44475
[4] = tested on: E. coli strains harboring the indicated amino acid at SPase residue 84; experiment: microbe, parasite or virus in culture; type: cell-based; conditions: Escherichia coli
[5] = tested on: lepB(P84L) P. aeruginosa PAO1; experiment: microbe, parasite or virus in culture; type: cell-based, Pseudomonas aeruginosa
[6] = tested on: Lactobacillus plantarum ATCC 8014; experiment: microbe, parasite or virus in culture; type: cell-based; conditions: Lactiplantibacillus plantarum, ATCC8014
[7] = tested on: S. aureus COL; experiment: microbe, parasite or virus in culture; type: cell-based; conditions: Staphylococcus aureus

Chain of truncated wild type E. coli SPase (P00803 76-324, looked up, natural form): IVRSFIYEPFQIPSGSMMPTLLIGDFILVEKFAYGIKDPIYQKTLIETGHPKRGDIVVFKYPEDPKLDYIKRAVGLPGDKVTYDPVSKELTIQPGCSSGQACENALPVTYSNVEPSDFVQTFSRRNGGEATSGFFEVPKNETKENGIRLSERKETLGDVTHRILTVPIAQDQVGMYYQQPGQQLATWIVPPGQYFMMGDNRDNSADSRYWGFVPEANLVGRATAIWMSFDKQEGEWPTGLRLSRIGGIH

SMILES: CCCCCCCCCCCCCCCC(=O)N(C)[C@H](CO)C(=O)N[C@H](C)C(=O)NCC(=O)N(C)[C@@H]1C(=O)N[C@@H](C)C(=O)N[C@H](C(=O)O)Cc2ccc(O)c(c2)-c2cc1ccc2O [Arylomycin C16, arylomycin C16]
- Kd [1]: 979 ± 69 nM
- fold decrease of MIC on permeabilization [2]: ≤ 4 fold
- MIC [3]: 2 µg/mL (≈ 2.27 µM)
- MIC ([4]; 'Phe or His' variant (temperature sensitive)): 2 µg/mL (≈ 2.27 µM)
- MIC ([4]; His variant (temperature sensitive)): 4 µg/mL (≈ 4.54 µM)
- MIC ([4]; Pro at SPase residue 84): > 256 µg/mL
- MIC ([4]; all of the other amino acids at residue 84): ≤ 16 µg/mL
- MIC ([5]; Pseudomonas aeruginosa, PAO1, Sensitive (genetically sensitized) strain, read-out: MIC): 8 µg/mL
- minimal inhibitory concentration (MIC) ([5]; Table 3, P3 position derivatives, unit not given): 4
- MIC [6]: > 128 µg/mL
- MIC [7]: 12 µg/mL (≈ 13.6 µM)
